Laboratory results as given in paper PMC6277767, “Broad and Region-Specific Impacts of the Synthetic Cannabinoid CP 55,940 in Adolescent and Adult Female Mouse Brains” (Frontiers in Molecular Neuroscience, 2018).

System: CD1 female mouse brain lipidome
Test: Brain-region lipid levels (HPLC/MS/MS lipidomics) 2 h after single i.p. 3 mg/kg CP 55,940 vs vehicle
Format: in vivo
Procedure: The Bloomington Institutional Animal Care and Use Committee of Indiana University reviewed and approved the animal procedures. Female mice from the CD1 strain were utilized to match our study examining THC’s effects on the brain lipidome ([Leishman et al., 2018]). Mice were given a single i.p. injection of either 3 mg/kg CP or 1:1:18 cremophor:ethanol:saline vehicle (please refer to the section “3 mg/kg CP Is Relevant for Synthetic Cannabinoid Abuse and Has Stronger Effects on the Female Mouse Brain Lipidome During Adolescence” for a justification of dose and use of female mice). Three different age groups were given injections: PND 35 and PND 50 adolescents, and adult mice (PND 113). At least eight mice in each age group received CP and at least eight received vehicle. Matching the THC study time course ([Leishman et al., 2018]), mice were sacrificed via rapid decapitation 2 h after injection. Brains were immediately removed and flash-frozen in liquid nitrogen, and then stored at -80°C until dissections were performed. Brains were dissected on an ice-cold dissection plate into the following regions: STR, HIPP, CER, THAL, CTX, HYP, MID, and STEM. These abbreviations for these brain areas will be used exclusively when discussing the results generated by these specific dissections. Each dissected area was immediately placed in liquid nitrogen and then stored at -80°C until used for lipid extraction.
Tissue extracts were performed as previously described ([Bradshaw et al., 2006]; [Stuart et al., 2013]; [Raboune et al., 2014]; [Leishman et al., 2016a],[b], [2017], [2018]). First, samples were shock frozen in liquid nitrogen, weighed, and transferred to a centrifuge tube. The mass of the largest sample was multiplied by 50 to determine how many milliliters of HPLC-grade methanol (Fisher, Fair Lawn, NJ, United States) to add. Then, samples were spiked with 500 pmol deuterium-labeled NAGly (d8NAGly; Cayman Chemical, Ann Arbor, MI, United States). Samples were placed on ice in darkness for 2 h then individually homogenized and centrifuged at 19,000 × g for 20 min at 20°C. Supernatants were diluted with HPLC water (purified in house) to make a solution of 75% water, 25% supernatant. Lipids were partially purified on C18 solid phase extraction columns (Agilent, Palo Alto, CA, United States). A series of four elutions with 1.5 mL of 60%, 75%, 85%, and 100% methanol were collected ([Stuart et al., 2013]; [Leishman et al., 2016a],[b], [2018]).
As previously described ([Bradshaw et al., 2006]; [Tan et al., 2006]; [Smoum et al., 2010]; [Stuart et al., 2013]; [Tortoriello et al., 2013]; [Raboune et al., 2014]; [Leishman et al., 2016a],[b], [2017], [2018]), samples were analyzed using an Applied Biosystems API 3000 triple quadrupole mass spectrometer with electrospray ionization (Foster City, CA, United States). Using an Agilent XDB-C18 reversed phase analytical column and optimized mobile phase gradients, 20 μL from each elution were chromatographed. Two Shimadzu 10ADvp pumps (Columbia, MD, United States) provided the pressure for gradient elution. Mobile phase A: 20% methanol, 80% water (v/v) and 1 mM ammonium acetate (Sigma, St. Louis, MO, United States). Mobile phase B: 100% methanol, 1 mM ammonium acetate. Every method run began with 0% mobile phase B, reached 100% mobile phase B flowing at 0.2 mL/min, and gradually returned to 0% mobile phase B.
This screening library will be referred to as the lipidome when discussing data from this study. HPLC/MS/MS data were analyzed using Analyst software (Applied Biosystems) ([Bradshaw et al., 2006]; [Tan et al., 2006]; [Stuart et al., 2013]; [Tortoriello et al., 2013]; [Raboune et al., 2014]; [Leishman et al., 2016a],[b], [2017], [2018]). Chromatograms (Supplementary Figure 3) were generated by determining the retention time of analytes from the analytical column with a [M-1] or [M+1] parent peak and a fragmentation peak corresponding to the programmed values. […]

With `CCCCCCC(C)(C)c1ccc([C@@H]2C[C@H](O)CC[C@H]2CCCO)c(O)c1` [CP 55,940] the “PGF2α level vs vehicle” value (PND 35 STR) was “↑ (1-1.49 times higher than vehicle)”, the “2-linoleoyl glycerol level vs vehicle” value (PND 35 THAL) was “↓ (1-1.49 times lower than vehicle)” and the “6-ketoPGF1α level vs vehicle” value (PND 35 THAL) was “↓ (1-1.49 times lower than vehicle)”. The “N- stearoyl valine level vs vehicle” value (PND 35 THAL) was “↑ (1-1.49 times higher than vehicle)”, the “N-arachidonoyl GABA level vs vehicle” value (PND 35 THAL) was “↓ (1-1.49 times lower than vehicle)” and the “N-arachidonoyl alanine level vs vehicle” value (PND 35 THAL) was “↓ (1-1.49 times lower than vehicle)”. The “N-arachidonoyl ethanolamine level vs vehicle” value (PND 35 THAL) was “↑ (1-1.49 times higher than vehicle)”, the “N-arachidonoyl glycine level vs vehicle” value (PND 35 THAL) was “↓ (1-1.49 times lower than vehicle)” and the “N-arachidonoyl phenylalanine level vs vehicle” value (PND 35 THAL) was “↑ (1-1.49 times higher than vehicle)”. For the same compound, the “N-arachidonoyl serine level vs vehicle” value (PND 35 THAL) was “↓ (1-1.49 times lower than vehicle)”, the “N-arachidonoyl taurine level vs vehicle” value (PND 35 THAL) was “↓ (1-1.49 times lower than vehicle)” and the “N-docosahexaenoyl GABA level vs vehicle” value (PND 35 THAL) was “↓ (1-1.49 times lower than vehicle)”. The “N-docosahexaenoyl alanine level vs vehicle” value (PND 35 THAL) was “↓ (1-1.49 times lower than vehicle)”, the “N-docosahexaenoyl glycine level vs vehicle” value (PND 35 THAL) was “↓ (1-1.49 times lower than vehicle)” and the “N-docosahexaenoyl leucine level vs vehicle” value (PND 35 THAL) was “↑↑ (1.50-1.99 times higher than vehicle)”. The “N-docosahexaenoyl phenylalanine level vs vehicle” value (PND 35 THAL) was “↑ (1-1.49 times higher than vehicle)”, the “N-linoleoyl ethanolamine level vs vehicle” value (PND 35 THAL) was “↑ (1-1.49 times higher than vehicle)” and the “N-oleoyl GABA level vs vehicle” value (PND 35 THAL) was “↓ (1-1.49 times lower than vehicle)”. For the same compound, the “N-oleoyl alanine level vs vehicle” value (PND 35 THAL) was “↓ (1-1.49 times lower than vehicle)”, the “N-oleoyl glycine level vs vehicle” value (PND 35 THAL) was “↓ (1-1.49 times lower than vehicle)” and the “N-oleoyl leucine level vs vehicle” value (PND 35 THAL) was “↑ (1-1.49 times higher than vehicle)”. The “N-oleoyl valine level vs vehicle” value (PND 35 THAL) was “↑ (1-1.49 times higher than vehicle)”, the “N-palmitoyl GABA level vs vehicle” value (PND 35 THAL) was “↑ (1-1.49 times higher than vehicle)” and the “N-palmitoyl leucine level vs vehicle” value (PND 35 THAL) was “↑ (1-1.49 times higher than vehicle)”. For the same compound, the “N-palmitoyl phenylalanine level vs vehicle” value (PND 35 THAL) was “↑ (1-1.49 times higher than vehicle)”, the “N-palmitoyl tyrosine level vs vehicle” value (PND 35 THAL) was “↑ (1-1.49 times higher than vehicle)” and the “N-palmitoyl valine level vs vehicle” value (PND 35 THAL) was “↑↑ (1.50-1.99 times higher than vehicle)”. The “N-stearoyl serine level vs vehicle” value (PND 35 THAL) was “↓ (1-1.49 times lower than vehicle)”, the “N-stearoyl tyrosine level vs vehicle” value (PND 35 THAL) was “↓ (1-1.49 times lower than vehicle)” and the “PGE2 level vs vehicle” value (PND 35 THAL) was “↑ (1-1.49 times higher than vehicle)”. The “phosphoLEA level vs vehicle” value (PND 35 THAL) was “↑ (1-1.49 times higher than vehicle)”, the “changes in NAEs” value (PND 35 brain) was 17 and the “changes in PG levels” value (PND 35 brain) was 15. For the same compound, the “changes in lipoamines derived from AA” value (PND 35 brain) was 50, the “decreases in 2-acyl glycerol levels” value (PND 35 brain) was 15 and the “decreases in PG levels” value (PND 35 brain) was 5. The “decreases in free fatty acid levels” value (PND 35 brain) was “Eight”, the “increases in PG levels” value (PND 35 brain) was 10 and the “percentage of detected lipids modified with acute CP” value (PND 35 brain, 529 detected) was 43.67%. For the same compound, the “2-arachidonoyl glycerol, Direction (relative to Veh)” value (PND 35 hypothalamus) was “↓”, the “2-arachidonoyl glycerol, Magnitude (x Veh level)” value (PND 35 hypothalamus) was 0.39 x Veh level and the “2-linoleoyl glycerol Direction (relative to Veh)” value (PND 35 hypothalamus) was “↓”. The “2-linoleoyl glycerol Magnitude (x Veh level)” value (PND 35 hypothalamus) was 0.63 x Veh level, the “2-oleoyl glycerol, Direction (relative to Veh)” value (PND 35 hypothalamus) was “↓” and the “2-oleoyl glycerol, Magnitude (x Veh level)” value (PND 35 hypothalamus) was 0.55 x Veh level. For the same compound, the “2-palmitoyl glycerol, Direction (relative to Veh)” value (PND 35 hypothalamus) was “↑”, the “2-palmitoyl glycerol, Magnitude (x Veh level)” value (PND 35 hypothalamus) was 1.29 x Veh level and the “Arachidonic acid, Direction (relative to Veh)” value (PND 35 hypothalamus) was “↓”. For the same compound, the “Arachidonic acid, Magnitude (x Veh level)” value (PND 35 hypothalamus) was 0.85 x Veh level, the “Linoleic acid, Direction (relative to Veh)” value (PND 35 hypothalamus) was “↓” and the “Linoleic acid, Magnitude (x Veh level)” value (PND 35 hypothalamus) was 0.75 x Veh level.
